Results taken from PubChem BioAssay AID1919001 (Molecular Pharmacology Branch, DTP, NCI, 2023).

Tested on: 699152-130-R-J1-PDC complex spheroid growth
Experiment: Anticancer human tumor 699152-130-R-J1-PDC patient-derived pancreatic carcinoma cell line growth inhibition [AhR]
Conditions: for IC50: curve of first compound; for viability, T/C: stronger effect = lower value
Excerpt: Multicellular complex tumor spheroid response to aryl hydrocarbon receptor antagonists in combination with a variety of drugs and investigational agents in selected tumor cell lines
The current study was undertaken to assess response to aryl hydrocarbon receptor antagonists in combination with standard-of-care drugs and investigational agents in solid tumor complex spheroid models. Complex spheroids include a stromal component modeled by human endothelial cells (HUVEC) and fibroblasts modeled by human mesenchymal stem cells (MSCs). The concentration ranges selected for each drug and investigational agent were based upon clinically achievable concentrations if the clinical Cmax of the agent was known.
Compounds. The drugs and investigational agents: BAY 2416964 (NSC825713), GNF351 (NSC835774), CH-223191 (NSC835775), CPI-455 (NSC825282), aza-TdCyd (NSC777586), decitabine (NSC127716), belinostat (NSC758774), entinostat (NSC756642), pevonedistat (NSC761192), tazemetostat (NSC777109), talazoparib (NSC765396), olaparib (NSC753686), selinexor (NSC780203), nedisertib (M3814, NSC802822), bortezomib (NSC756655), venetoclax (NSC766270), doxorubicin (NSC123127), elimusertib (BAY189344, NSC800525), ceralasertib (AZD6738, NSC777638), TAK-243 (NSC785004), alisertib (NSC759677), etoposide (NSC141540), topotecan (NSC609699), eribulin (NSC707389), gemcitabine (NSC613327), carboplatin (NSC241240), cisplatin (NSC119875), and SN-38 (NSC673596) were obtained from the National Cancer Institute (NCI) Developmental Therapeutics Program Chemical Repository (32). The FDA-approved anticancer drug set is available from the Developmental Therapeutics Program at https://dtp.cancer.gov/organization/dscb/obtaining/available plates.htm. […] The stock solutions were prepared in dimethyl sulfoxide (DMSO, Sigma-Aldrich, St. Louis, MO, cat. D2650), except for the platinum compounds which were prepared in saline (Quality Biological, Gaithersburg, MD, cat. 114-055-101), at 800-fold the tested concentration and stored at -70 degrees C prior to their use. All drugs and investigational agents were tested over a range starting from a high concentration at or near the clinical Cmax and decreasing in half-log increments. If the clinical Cmax for an agent had not been determined, the highest concentration tested was 10 microM (Table 1).
Cell Culture. All cells were maintained in an incubator at 37 degrees C and 5% CO2 with 95% humidity. The PDC lines were cultured according to standard operating procedures established by the NCI PDMR (https://pdmr.cancer.gov). Briefly, all PDCs were thawed and cultured in Matrigel-coated flasks prepared with a working solution of 1X Ham's F-12 nutrient mix, without supplementation (Invitrogen, Waltham, MA, cat. 11765054), 100 U/mL penicillin-streptomycin (Invitrogen, cat. 15140122), and 2.5% Matrigel (Corning Inc., Corning, NY, cat. 354248) for the first three passages. All PDCs were cultured in complete DMEM/F-12 media containing advanced DMEM/F-12 (Invitrogen, cat. 12634028), 4.9% defined fetal bovine serum, heat inactivated (HyClone Laboratories Inc., Logan, UT, cat. SH30070.03HI), 389 ng/mL hydrocortisone (Sigma-Aldrich, cat. H4001), 9.7 ng/mL human EGF recombinant protein (Invitrogen, cat. PHG0313), 23.4 microg/mL adenine (Sigma-Aldrich, cat. A2786), 97.3 U/mL penicillin-streptomycin (Invitrogen, cat. 15140122), 1.9 mM L-glutamine (Invitrogen, cat. 25030081), and 9.7 microM Y-27632 dihydrochloride (Tocris Bioscience, Bristol, United Kingdom, cat. 1254). The PDCs were cultured in complete DMEM/F12 media without 10 microM Y-27632 dihydrochloride for at least two passages prior to the screen. The established cell lines NCI-H1341 and […] were cultured in DMEM/F-12, HEPES (Invitrogen, cat. 11330032), 5% defined fetal bovine serum (HyClone Laboratories Inc., cat. SH30070.03), ITS premix universal culture supplement [insulin (5 microg/mL), transferrin (5 microg/mL), and selenious acid (5 ng/mL)] […]

[1] = second compound 0.1 µM, first compound 0.0316 µM
[2] = second compound 0.1 µM, first compound 0.1 µM
[3] = second compound 0.1 µM, first compound 0.316 µM
[4] = second compound 0.1 µM, first compound 1 µM
[5] = second compound 0.1 µM, first compound 3.16 µM
[6] = second compound 0.1 µM, first compound 10 µM
[7] = second compound 0.316 µM, first compound 0.0316 µM
[8] = second compound 0.316 µM, first compound 0.1 µM
[9] = second compound 0.316 µM, first compound 0.316 µM
[10] = second compound 0.316 µM, first compound 1 µM
[11] = second compound 0.316 µM, first compound 3.16 µM
[12] = second compound 0.316 µM, first compound 10 µM
[13] = second compound 1 µM, first compound 0.0316 µM
[14] = second compound 1 µM, first compound 0.1 µM
[15] = second compound 1 µM, first compound 0.316 µM
[16] = second compound 1 µM, first compound 1 µM
[17] = second compound 1 µM, first compound 3.16 µM
[18] = second compound 1 µM, first compound 10 µM
[19] = second compound 3.16 µM, first compound 0.0316 µM
[20] = second compound 3.16 µM, first compound 0.1 µM
[21] = second compound 3.16 µM, first compound 0.316 µM
[22] = second compound 3.16 µM, first compound 1 µM
[23] = second compound 3.16 µM, first compound 3.16 µM
[24] = second compound 3.16 µM, first compound 10 µM
[25] = second compound 10 µM, first compound 0.0316 µM
[26] = second compound 10 µM, first compound 0.1 µM
[27] = second compound 10 µM, first compound 0.316 µM
[28] = second compound 10 µM, first compound 1 µM
[29] = second compound 10 µM, first compound 3.16 µM
[30] = second compound 10 µM, first compound 10 µM
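Note: compound exposure lasted 7 days after spheroids had grown for 3 days.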

IC50 (second compound 0.1 µM)	IC50 (second compound 0.316 µM)	IC50 (second compound 1 µM)	IC50 (second compound 3.16 µM)	IC50 (second compound 10 µM)	Structure (SMILES)	viability, T/C [1]	viability, T/C [2]	viability, T/C [3]	viability, T/C [4]	viability, T/C [5]	viability, T/C [6]	viability, T/C [7]	viability, T/C [8]	viability, T/C [9]	viability, T/C [13]	viability, T/C [14]	viability, T/C [19]	viability, T/C [20]	viability, T/C [25]	viability, T/C [26]	further results
> 10 µM	7.66 µM	9.21 µM	2.7 µM	< 0.0316 µM	COc1cc(C2c3cc4c(cc3C(OC3OC5COC(C)OC5C(O)C3O)C3COC(=O)C23)OCO4)cc(OC)c1O (stereo not given) + Cc1cncc(-c2nc(NCCc3c[nH]c4ccccc34)c3ncn(C(C)C)c3n2)c1	106%	98%	70.1%	70.3%	58%	52.6%	104%	89.5%	80.2%	99.6%	97.2%	106%	91.3%	0.93%	1.13%	viability, T/C [10]: 67.4%; viability, T/C [11]: 58.9%; viability, T/C [12]: 46.8%; viability, T/C [15]: 74.9%; viability, T/C [16]: 77.5%; viability, T/C [17]: 63.6%; viability, T/C [18]: 47.4%; viability, T/C [21]: 70.1%; viability, T/C [22]: 60.6%; viability, T/C [23]: 48.5%; viability, T/C [24]: 41.7%; viability, T/C [27]: 1.96%; viability, T/C [28]: 1.2%; viability, T/C [29]: 1.07%; viability, T/C [30]: 4.92%
> 10 µM	> 10 µM	> 10 µM	> 10 µM	> 10 µM	CC1COCCN1c1cc(C2(S(C)(=N)=O)CC2)nc(-c2ccnc3[nH]ccc23)n1 (stereo not given) + Cc1ccccc1N=Nc1ccc(NC(=O)c2ccnn2C)c(C)c1	109%	109%	86.1%	88.9%	88.4%	73.7%	92%	98%	98.4%	90.5%	101%	105%	97%	111%	125%	viability, T/C [10]: 101%; viability, T/C [11]: 84.9%; viability, T/C [12]: 65.8%; viability, T/C [15]: 99.5%; viability, T/C [16]: 95.9%; viability, T/C [17]: 84.8%; viability, T/C [18]: 65.3%; viability, T/C [21]: 97.9%; viability, T/C [22]: 99%; viability, T/C [23]: 79.2%; viability, T/C [24]: 69.8%; viability, T/C [27]: 112%; viability, T/C [28]: 104%; viability, T/C [29]: 94.8%; viability, T/C [30]: 80.6%
> 10 µM	> 10 µM	> 10 µM	> 10 µM	> 10 µM	COc1cc(Nc2ncc3c(n2)-c2ccc(Cl)cc2C(c2c(F)cccc2OC)=NC3)ccc1C(=O)O + CC(CO)NC(=O)c1cc(-c2ccc(Cl)cc2)nn(-c2cnn(C)c2)c1=O	92.5%	79.1%	78.6%	65.3%	63.8%	62.3%	97%	94.4%	74.5%	95%	84%	85%	76.1%	78.7%	85.8%	viability, T/C [10]: 63%; viability, T/C [11]: 65.1%; viability, T/C [12]: 60.9%; viability, T/C [15]: 86%; viability, T/C [16]: 65.8%; viability, T/C [17]: 64.1%; viability, T/C [18]: 59.7%; viability, T/C [21]: 85.3%; viability, T/C [22]: 59.6%; viability, T/C [23]: 60.2%; viability, T/C [24]: 56.1%; viability, T/C [27]: 83%; viability, T/C [28]: 73.1%; viability, T/C [29]: 69.7%; viability, T/C [30]: 58.9%
> 0.1 µM	> 0.1 µM	> 0.1 µM	> 0.1 µM	> 0.1 µM	CC[C@@]1(O)C(=O)OCc2c1cc1n(c2=O)Cc2cc3c(CN(C)C)c(O)ccc3nc2-1 + CC(CO)NC(=O)c1cc(-c2ccc(Cl)cc2)nn(-c2cnn(C)c2)c1=O	86.7%	64.7%					76.3%	60.3%		83.6%	62.5%	71.8%	60.7%	72.3%	57%	viability, T/C (second compound 0.1 µM, first compound 0.000316 µM): 101%; viability, T/C (second compound 0.1 µM, first compound 0.001 µM): 102%; viability, T/C (second compound 0.1 µM, first compound 0.00316 µM): 112%; viability, T/C (second compound 0.1 µM, first compound 0.01 µM): 98.6%; viability, T/C (second compound 0.316 µM, first compound 0.000316 µM): 94.1%; viability, T/C (second compound 0.316 µM, first compound 0.001 µM): 107%; viability, T/C (second compound 0.316 µM, first compound 0.00316 µM): 93%; viability, T/C (second compound 0.316 µM, first compound 0.01 µM): 83.5%; viability, T/C (second compound 1 µM, first compound 0.000316 µM): 96.8%; viability, T/C (second compound 1 µM, first compound 0.001 µM): 108%; viability, T/C (second compound 1 µM, first compound 0.00316 µM): 92.5%; viability, T/C (second compound 1 µM, first compound 0.01 µM): 79.4%; viability, T/C (second compound 3.16 µM, first compound 0.000316 µM): 89.4%; viability, T/C (second compound 3.16 µM, first compound 0.001 µM): 102%; viability, T/C (second compound 3.16 µM, first compound 0.00316 µM): 93.7%; viability, T/C (second compound 3.16 µM, first compound 0.01 µM): 84%; viability, T/C (second compound 10 µM, first compound 0.000316 µM): 102%; viability, T/C (second compound 10 µM, first compound 0.001 µM): 103%; viability, T/C (second compound 10 µM, first compound 0.00316 µM): 86.3%; viability, T/C (second compound 10 µM, first compound 0.01 µM): 80.7%
